# Reference: US10851067B2, “Kv7 channel activators compositions and methods of use” (Knopp Biosciences LLC, priority 2018, dated 2020)
# Molecular target: T1, Kv7.2/7.3 (Homo sapiens, UniProt O43525+O43526)
# Experiment: Kv7.2/7.3 Activation Assay, QPatch single concentration screen
# Format: cell-based
# Parameters: host or cells: HEK cells, tetracycline-inducible expression; key: 1.2-2.9 (+); 3-3.9 (++); >4 (+++) fold increase over baseline; O represents open channel at holding potential
# Details: Kv7.2/Kv7.3 co-expressing HEK cells, compound concentration 3 μM, steady-state current at end of 2 s pulse to −30 mV
# Summary of the method: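 Tetracycline-induced HEK cells expressing human Kv7.2/7.3, recorded 24 h post-induction by automated planar patch clamp. From −80 mV, 2 s steps to −30 mV then 100 ms to −120 mV; compound tested at 3 μM (0.1% DMSO). Steady-state current at end of −30 mV step gives fold increase over baseline.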
row,Kv7.2/7.3 Activity: increase over baseline in current,SMILES
1,+ (1.2-2.9 (+)),"CC(O)(CC(=O)Nc1nc2cc(F)c(C#N)cc2n1C1(C)CCC1)c1ccccc1F (single isomer, unassigned) [Example 478, N-(6-cyano-5-fluoro-1-(1-methylcyclobutyl)-1H-benzo[d]imidazol-2-yl)-3-(2-fluorophenyl)-3-hydroxybutanamide]"
2,+ (1.2-2.9 (+)),"CC(C)(CC(=O)Nc1nc2ccc(C#N)c(F)c2n1C1CCC1)CC(F)(F)F [Example 345, N-(6-cyano-1-cyclobutyl-7-fluoro-1H-benzo[d]imidazol-2-yl)-5,5,5-trifluoro-3,3-dimethylpentanamide]"
3,+ (1.2-2.9 (+)),"CC(O)(CC(=O)Nc1nc2cc(F)c(C#N)cc2n1C1CCC1)c1ccccc1 (single isomer, unassigned) [Example 350, N-(6-cyano-1-cyclobutyl-5-fluoro-1H-benzo[d]imidazol-2-yl)-3-hydroxy-3-phenylbutanamide]"
4,+ (1.2-2.9 (+)),"CC(C)(C)CC(=O)Nc1nc2cc(F)c(C#N)c(F)c2n1C1CCC1 [Example 356, N-(6-cyano-1-cyclobutyl-5,7-difluoro-1H-benzo[d]imidazol-2-yl)-3,3-dimethylbutanamide]"
5,++ (3-3.9 (++)),"CC(C)(CC(=O)Nc1nc2ccc(C#N)cc2n1C1(C)CCC1)C1CC1 [Example 379, N-(6-cyano-1-(1-methylcyclobutyl)-1H-benzo[d]imidazol-2-yl)-3-cyclopropyl-3-methylbutanamide]"
6,++ (3-3.9 (++)),"CC(O)(CC(=O)Nc1nc2cc(F)cc(C#N)c2n1C1(C)CCC1)c1ccccc1 (single isomer, unassigned) [Example 441, N-(7-cyano-5-fluoro-1-(1-methylcyclobutyl)-1H-benzo[d]imidazol-2-yl)-3-hydroxy-3-phenylbutanamide]"
7,O,"C[C@@H](CC(=O)Nc1nc2c(F)cc(C(C)(C)O)cc2n1C1CCC1)c1ccccc1 [Example 410, (S)-N-(1-cyclobutyl-4-fluoro-6-(2-hydroxypropan-2-yl)-1H-benzo[d]imidazol-2-yl)-3-phenylbutanamide]"
8,O,"CC(O)(CC(=O)Nc1nc2c(F)cc(C#N)cc2n1C(C)(C)C)c1ccccc1F (single isomer, unassigned) [Example 348, N-(1-(tert-butyl)-6-cyano-4-fluoro-1H-benzo[d]imidazol-2-yl)-3-(2-fluorophenyl)-3-hydroxybutanamide]"
9,+ (1.2-2.9 (+)),"CC(O)(CC(=O)Nc1nc2ccc(OC(F)F)cc2n1C1(C)CCC1)c1ccccc1 (single isomer, unassigned) [Example 463, N-(6-(difluoromethoxy)-1-(1 - methylcyclobutyl)-1H-benzo[d]imidazol-2-yl)-3-hydroxy-3-phenylbutanamide]"

# The remaining lines, values behind:
row,SMILES,Kv7.2/7.3 Activity: increase over baseline in current
1,"CC(C)(CC(=O)Nc1nc2cccc(F)c2n1C1CCC1)C(F)(F)F [Example 408, N-(1-cyclobutyl-7-fluoro-1H-benzo[d]imidazol-2-yl)-4,4,4-trifluoro-3,3-dimethylbutanamide]",++ (3-3.9 (++))
2,"CC(C)(O)c1ccc2nc(NC(=O)CC3CC(F)(F)C3(F)F)n(C3CCC3)c2c1 (centres unmarked) [Example 353, N-(1-cyclobutyl-6-(2-hydroxypropan-2-yl)-1H-benzo[d]imidazol-2-yl)-2-(2,2,3,3-tetrafluorocyclobutyl)acetamide]",+ (1.2-2.9 (+))
3,"CC(C)(C)CC(=O)Nc1nc2c(C(F)(F)F)cc(Br)cc2n1C1CCC1 [Example 477, N-(6-bromo-1-cyclobutyl-4-(trifluoromethyl)-1H-benzo[d]imidazol-2-yl)-3,3-dimethylbutanamide]",+++ (>4 (+++) fold increase over baseline)
4,"CC(C)(C)CC(=O)Nc1nc2cc(F)cc(F)c2n1C1CCC1 [Example 357, N-(1-cyclobutyl-5,7-difluoro-1H-benzo[d]imidazol-2-yl)-3,3-dimethylbutanamide]",+++ (>4 (+++) fold increase over baseline)
5,"CC(C)(CC(=O)Nc1nc2c(F)cc(C#N)c(F)c2n1C1CCC1)C1CC1 [Example 464, N-(6-cyano-1-cyclobutyl-4,7-difluoro-1H-benzo[d]imidazol-2-yl)-3-cyclopropyl-3-methylbutanamide]",++ (3-3.9 (++))
6,"CC(C)(O)CC(=O)Nc1nc2cccc(OC(F)(F)F)c2n1C1CCC1 [Example 380, N-(1-cyclobutyl-7-(trifluoromethoxy)-1H-benzo[d]imidazol-2-yl)-3-hydroxy-3-methylbutanamide]",+ (1.2-2.9 (+))
7,"CC(C)(O)c1cc(F)c2nc(NC(=O)CC(C)(C)C(F)F)n(C3CCC3)c2c1 [Example 456, N-(1-cyclobutyl-4-fluoro-6-(2-hydroxypropan-2-yl)-1H-benzo[d]imidazol-2-yl)-4,4-difluoro-3,3-dimethylbutanamide]",++ (3-3.9 (++))
8,"COc1cc(F)c2nc(NC(=O)CC(C)(C)C)n(C3(C)CCC3)c2c1 [Example 355, N-(4-fluoro-6-methoxy-1-(1-methylcyclobutyl)-1H-benzo[d]imidazol-2-yl)-3,3-dimethylbutanamide]",+++ (>4 (+++) fold increase over baseline)
9,"CC(C)(C)CC(=O)Nc1nc2ccc(C(C)(C)O)cc2n1CC(F)(F)F [Example 440, N-(6-(2-hydroxypropan-2-yl)-1-(2,2,2-trifluoroethyl)-1H-benzo[d]imidazol-2-yl)-3,3-dimethylbutanamide]",+ (1.2-2.9 (+))
10,"CC(C)(CC(=O)Nc1nc2c(F)cc(C3(O)CCC3)cc2n1C1CCC1)C(F)(F)F [Example 352, N-(1-cyclobutyl-4-fluoro-6-(1-hydroxycyclobutyl)-1H-benzo[d]imidazol-2-yl)-4,4,4-trifluoro-3,3-dimethylbutanamide]",++ (3-3.9 (++))

# Molecular target: T1, Kv7.2/7.3
# Experiment: Kv7.2/7.3 Thallium Flux Assay
# Format: cell-based
# Parameters: host or cells: HEK cells, tetracycline-inducible expression
# Details: read-out: Kv7.2/7.3 Activity: EC50 of Kv7.2/Kv7.3 activation
# From the text: The Thallium Flux Assay is used as a surrogate indicator of potassium channel activity.
# The experimental protocol was adapted from the FluxOR™ II Green Potassium Ion Channel Assay User Guide (Pub. No. MAN0016084, Invitrogen). Conditions were optimized for the Kv7.2/7.3 cell line.
# The hKV7.2/7.3 cell line was obtained from Chantest (Cleveland, Ohio 44128) cat. #CT6147.
# Kv7.2/7.3 cells were maintained in a media containing DMEM/F12; 50/50 (GIBCO cat. #11330), 10% Fetal Bovine Serum (FBS) (GIBCO cat. #26140), 100 units/mL Penicillin-Streptomycin (GIBCO cat. #15140), 0.005 mg/ml Blasticidin (SIGMA 15205), 0.5 mg/mL Geneticin (GIBCO cat. #10131), and 0.1 mg/mL Zeocin (GIBCO cat. #R25001). One day prior to experimentation, cells were plated in 96 well clear bottom plates (Corning cat. #353219) in a media without Blasticidin, Geneticin, or Zeocin. Channel expression was induced by adding tetracycline (Bioline cat. #BIO87030) at a final concentration of 10 ng/mL.
# The test compound is diluted in a mixture of 0.1% DMSO/extracellular solution with an eight-point concentration range from 0.014 μM to 30 μM. Serial dilutions were made on a Biomek NXP (BECKMAN COULTER).
# Measurement and Data Analysis:
# A plate reader (Enspire, Perkin Elmer) is used to characterize the ion-channel modulating properties of novel compounds using an excitation wavelength of 475 nm and an emission wavelength of 530 nm. After a 15 sec baseline measurement, the stimulus buffer containing thallium and potassium is injected. A final endpoint measure is taken after 90 sec. Responses are normalized to positive control (retigabine, 30 µM max). Mean normalized responses at each concentration tested are fit to the standard Hill equation to generate an EC50 and maximal response.
row,EC50,SMILES
1,< 1000 nM,"CC(C)(C)CC(=O)Nc1nc2ccc(C#N)c(C(F)(F)F)c2n1C1CCC1 [Example 507, N-(6-cyano-1-cyclobutyl-7-(trifluoromethyl)-1H-benzo[d]imidazol-2-yl)-3,3-dimethylbutanamide]"
2,< 1000 nM,"CC1(n2c(NC(=O)CC(C)(C)C(F)(F)F)nc3ccc(Cl)c(F)c32)CCC1 [Example 555, N-(6-chloro-7-fluoro-1-(1-methylcyclobutyl)-1H-benzo[d]imidazol-2-yl)-4,4,4-trifluoro-3,3-dimethylbutanamide]"
3,< 1000 nM,"CC(C)(C)CC(=O)Nc1nc2c(F)cc(C#N)cc2n1C1(C)CCC1 [Example 495, N-(6-cyano-4-fluoro-1-(1-methylcyclobutyl)-1H-benzo[d]imidazol-2-yl)-3,3-dimethylbutanamide]"

# Further lines, the compound ahead of its results:
row,SMILES,EC50
1,"CC1(n2c(NC(=O)CC3CC(F)(F)C3(F)F)nc3cc(F)c(F)c(F)c32)CCC1 (single isomer, unassigned) [Example 559, 2-(2,2,3,3-tetrafluorocyclobutyl)-N-(5,6,7-trifluoro-1-(1-methylcyclobutyl)-1H-benzo[d]imidazol-2-yl)acetamide]",< 1000 nM
2,"CC(C(=O)Nc1nc2c(F)cc(C#N)cc2n1C1(C)CCC1)C1(C(F)(F)F)CC1 (single isomer, unassigned) [Example 503, N-(6-cyano-4-fluoro-1-(1-methylcyclobutyl)-1H-benzo[d]imidazol-2-yl)-2-(1-(trifluoromethyl)cyclopropyl)propanamide]",< 1000 nM
3,"COc1cc(C#N)cc2c1nc(NC(=O)CC1(C(F)(F)F)CC1)n2C(C)(C)C [Example 520, N-(1-(tert-butyl)-6-cyano-4-methoxy-1H-benzo[d]imidazol-2-yl)-2-(1-(trifluoromethyl)cyclopropyl)acetamide]",3000 to 10000 nM
4,"CC(C(=O)Nc1nc2c(F)cc(C#N)cc2n1C1(C)CCC1)C(C)(C)C(F)(F)F (single isomer, unassigned) [Example 562, N-(6-cyano-4-fluoro-1-(1-methylcyclobutyl)-1H-benzo[d]imidazol-2-yl)-4,4,4-trifluoro-2,3,3-trimethylbutanamide]",< 1000 nM
